Patent publication US11648291B2, “Method of using PRD, PRD-S TAD, ZF7 peptide or mixture thereof to inhibit cellular response to inflammatory stimuli or treat cytokine-storm-mediated diseases” (GUANGZHOU MEDICAL UNIVERSITY, priority 2020, dated 2023)
Several values for one entry are separate records, joined by “and”; a condition that tells them apart may be missing. Equal values may be shown once.

Key:
[1] = tested on: cellular response to TNFα, IL-1β, and LPS; test: Cellular response to TNFα, IL-1β and LPS, data not shown (control peptide, biotin-tagged peptides); format: cell-based; conditions: for effect of biotin on the activity of the peptide: biotin attached to the N-terminus
From the text: (§1) In order to test the hypotheses that the PRD and TAD peptides inhibit the response to pro-inflammatory stimuli such as TNFα, IL-1β, and LPS, the peptides were synthesized and transfected into HCT-8 cells using a protein transfection reagent (Pierce). […] Next, we tested whether they can inhibit the expression of genes induced by TNFα, IL-1β, and LPS in human PBMCs. Both peptides indeed inhibited the expression of IL-6, IL-1β, IL-8, and arginase induced by TNFα, IL-1β, or LPS (FIG. 4B). Since both peptides are highly hydrophobic, we tested whether they can penetrate cells. Indeed, both peptides inhibited TNFα- or IL-1β-induced IL-8 expression with or without the transfection agent in HCT-8 cells, although it took more peptides to produce the similar level of inhibition (FIG. 4C, left panel). […] We tested a random peptide sequence ([…], SEQ ID NO:41) as a control and it had no effect on the cellular response to TNFα, IL-1β, and LPS (data not shown).
(§2) Recent findings identified the ZF7 (zinc finger domain 7) as the key domain for A20 to suppress inflammation (FIG. 6A). We hypothesized that ZF7 peptide inhibit the TNFα response just as PRD and TAD peptides do. […] Next, we tested whether ZF7 inhibits LPS response in vivo. We injected mice with a high dose of LPS (200 μg/mouse) or LPS+ZF7 (200 μg/mouse) and collected the sera after 3 hours. […] In order to tract ZF7 peptide inside cells, biotin was attached to the N-terminus to ZF7 peptide.

[2] = tested on: TNFα-induced IL-8 expression in HCT-8 cells; test: TNFα/IL-1β-induced IL-8 expression in HCT-8 cells (IL-8 ELISA); format: cell-based, human; conditions: for expression of IL-8 by the peptides themselves: no stimulus; for TNFα- or IL-1β-induced IL-8 expression: HCT-8, with or without the transfection agent, 1 μg/ml, TNFα 2 ng/ml or IL-1β 1 ng/ml, more peptide needed without transfection
Procedure: The indicated amount of the peptides was transfected into HCT-8 as described in the method. The transfected cells were stimulated with TNFα (4 hours after peptide transfection) for 24 hours. IL-8 expression was measured by ELISA. The results are the representative of 3 similar experiments.
(§3) HCT-8 cells were transfected with the peptides or just treated with them without transfection (1 μg/ml) and stimulated with TNFα (2 ng/ml) or IL-1-β (1 ng/ml) for 24 hours. PMBCs were treated with the indicated amount of each peptide (no transfection) and stimulated with TNFα (2 ng/ml) for 24 hours. IL-8 expression was measured by ELISA. The results are the representative of 2 similar experiments.
HCT-8 cells were stimulated with TNFα (2 ng/ml) with the indicated amount of PRD-S peptide for 24 hours. IL-8 expression was measured by ELISA.
Human PBMCs and THP-1 cells were cultured in RPMI-1640 while FLS and HCT-8 cells in DMEM, supplemented with 10% fetal bovine serum and maintained in a humidified incubator at 37° C. with 5% CO2 in air.
(§4) IL-8 LEISA kit was purchased from ThermoFisher and ELISA was performed according to the manufacturer's instruction.
Peptides were transfected into the cells using Pierce Protein Transfection Reagent Kit™ according to the manufacturer's instruction. The Pierce Reagent in methanol was pipetted into a tube and the solvent was evaporated in the hood. Peptides were diluted in PBS and mixed with the dried Pierce Reagent. The peptides/Reagent complex was added to the cells in serum-free medium. After 4 hours, the medium containing serum was added to the cells and the cells were used for experiments.
as §1
Based on the sequence analysis of the YAP1 mutants (FIG. 2A), we tested whether the shortest PRD peptide (M1) inhibits the TNFα response. We named this peptide as PRD-S(small).
as §2

[3] = tested on: gene expression induced by TNFα, LPS, or IL-1β in human PBMCs; test: Gene expression induced by TNFα, LPS or IL-1β in human PBMCs (ELISA, LegendPlex); format: cell-based; conditions: transfected PRD 1 μg or TAD 0.5 μg, TNFα 2 ng/ml, LPS 50 ng/ml or IL-1β 2 ng/ml, 24 hours
Procedure: PBMCs were transfected with either PRD (1 μg) or TAD (0.5 μg) as described in the method. The transfected cells were stimulated with TNFα (2 ng/ml), LPS (50 ng/ml), or IL-1β (2 ng/ml), 4 hours after peptide transfection, for 24 hours. IL-8 expression was measured by ELISA and IL-6, IL-1β, and arginase levels were measured by flow cytometry using LegendPlex as described in the method. The results are the representative of 3 similar experiments.
as §3, §4
All steps of PBMC preparation were carried out at room temperature. The blood from the same donor was pooled and mixed 1:1 with pre-warmed (room temperature) 1×PBS (without Ca^2+ or Mg^2+). […]
To simultaneously quantify the concentration of the soluble inflammatory cytokines and chemokines, the cell culture supernatant was analyzed by using the bead-based multiplex LEGENDplex™ (Biolegend) according to the manufacturer's instruction. […]

[4] = tested on: TNFα response in HCT-8 cells (C, A20 KD, YAP KD); test: TNFα response (IL-8 ELISA) in control, A20 KD and YAP KD HCT-8 cells; format: cell-based, human; conditions: TNFα 2 ng/ml overnight
Procedure: HCT-8 cells (C, A20 KD, YAP KD) were treated with PRD, TAD, or ZF7 peptide (1 μg/ml) and stimulated with TNFα (2 ng/ml) overnight. IL-8 levels in the medium were measured by ELISA. The results are the representative of 2 similar experiments. IL-8 LEISA kit was purchased from ThermoFisher and ELISA was performed according to the manufacturer's instruction. Next, we investigated how PRD, TAD, and ZF7 peptides inhibit the TNFα response. The PRD, TAD, and ZF7 peptides have the same effect as either YAP9 OE (over-expression) or A20 OE, respectively. Since YAP9 OE or A20 OE is futile in the absence of the other (FIGS. 5B and 5C), PRD or TAD peptide should also require the presence of A20 while ZF7 peptide the presence of YAP9. Indeed, our data supported this notion. When both YAP9 and A20 are present (C), all 3 peptides inhibited the TNFα response.

[5] = tested on: LPS response in mice; test: LPS response in mice: serum cytokines and chemokines by LegendPlex (Table 1); format: in vivo, C57BL/6 mice
Procedure: as §2
Table.1 ZF7 peptide inhibits the LPS response in mice. C57BL/6 mice (n=2) were injected intraperitoneally with LPS (200 μg/mouse) or LPS (200 μg/mouse)+ZF7 peptide (200 μg/mouse) and the sera were collected after 3 hours. The cytokines and chemokines in the sera were measured by LegendPlex according to the manufacturer's instruction. The number represents pg/ml.

[6] = tested on: LPS-induced mortality; test: LPS-induced mortality in mice; format: in vivo, mice (C57B/6); conditions: mice n=5, LPS 200 μg + ZF7 300 μg i.p., observed 7 days; LPS control group 60% mortality
Procedure: Mice (8-week old, C57B/6, n=5) were injected with LPS (200 μg) or LPS (200 μg)+ZF7 (300 μg) in 200 μl PBS intraperitoneally.
Since ZF7 inhibited LPS-induced cytokine production in mice (Table 1), we next tested whether ZF7 peptide can protect mice from LPS-induced mortality.

[7] = HCT-8, peptides transfected, TNFα 24 hours, ELISA
[8] = control HCT-8 (both YAP9 and A20 present), peptide 1 μg/ml
[9] = serum 3 hours after i.p. LPS 200 μg/mouse + ZF7 200 μg/mouse, one line per mouse (n=2)

| Sequence | TNFα-induced IL-8 expression [2, 7] | expression of IL-8 by the peptides themselves ([2]; HCT-8, peptides transfected) | TNFα- or IL-1β-induced IL-8 expression ([2]; 24 hours) | expression of IL-6, IL-1β, IL-8, and arginase induced by TNFα, IL-1β, or LPS [3] | TNFα response (IL-8) ([4]; A20 KD HCT-8, peptide 1 μg/ml) | TNFα response (IL-8) ([4]; YAP KD HCT-8, peptide 1 μg/ml) | TNFα response (IL-8) [4, 8] | effect of biotin on the activity of the peptide [1] | further results |
| --- | --- | --- | --- | --- | --- | --- | --- | --- | --- |
| ARNDCEQGHILKMFPSTWYV [random peptide sequence, reference compound] |  |  |  |  |  |  |  |  | effect on the cellular response to TNFα, IL-1β, and LPS ([1]; control peptide): no effect |
| GQPPSQPPQGQGPPSGPGQPAPAATQAAPQ (listed as Homo sapiens) [PRD] | suppressed | did not affect | inhibited | inhibited | significantly less effective | retained their full inhibitory capacity | inhibited | did not affect the activity |  |
| PPKQRCRAPACDHFGNAKCNGYCNECYQFKQMYG (listed as Homo sapiens) [ZF7] |  |  |  |  | retained its full inhibitory capacity | ineffective | inhibited | did not affect the activity | TNFα response (IL-8 ELISA) ([2]; HCT-8, without transfection, TNFα 2 ng/ml overnight): significantly inhibited; all the cytokines and chemokines measured in sera ([5]; mice, LPS 200 μg/mouse + ZF7 200 μg/mouse, sera after 3 hours): almost completely inhibited; CCL2 [5, 9]: 238.13 pg/mL and 222.5 pg/mL; GMCSF [5, 9]: <18.38 pg/mL; IFNβ [5, 9]: <4.36 pg/mL; IFNγ [5, 9]: <0.53 pg/mL and 87.58 pg/mL; IL1-β [5, 9]: <4.33 pg/mL and 14.99 pg/mL; IL-1α [5, 9]: <26.12 pg/mL and 57.24 pg/mL; IL-6 [5, 9]: 4142.37 pg/mL and 1570.50 pg/mL; IL-10 [5, 9]: <9.48 pg/mL and 65.31 pg/mL; IL-17A [5, 9]: <4.47 pg/mL and 129.84 pg/mL; IL-27 [5, 9]: <8.56 pg/mL and 137.96 pg/mL; TNFα [5, 9]: <4.10 pg/mL and 44.45 pg/mL; LPS-induced mortality [6]: no mortality |
| QPPGQGPPSGPGQPA (listed as Homo sapiens) [PRD-S] |  |  |  |  |  |  |  |  | TNFα-induced IL-8 expression ([2]; HCT-8, PRD-S without transfection, TNFα 2 ng/ml, 24 hours): inhibited TNFα-induced IL-8 expression in a dose-response manner |
| RQAMRININPSTANSPKCQE (listed as Homo sapiens) [TAD] | suppressed | did not affect | inhibited | inhibited | significantly less effective | retained their full inhibitory capacity | inhibited | did not affect the activity | relative potency in suppressing TNFα-induced IL-8 expression ([2]; HCT-8, peptides transfected): more potent than PRD peptide |
